Reference: US9359314B2, “Thiazine amide derivative and pharmaceutical composition and use thereof” (Institute Of Pharmacology And Toxicology Academy Of …, priority 2012, dated 2016)

Tests used:
[1] = test system: BCAO-LBP mice; assay: Anti incomplete cerebral ischemia effect in mouse bilateral carotid artery occlusion with low blood pressure (BCAO-LBP) model, intragastric administration; format: in vivo, Kunming mice; details: 30 mg/kg i.g once per day for 3 d, x ± SEM; for Neural deficit score: medium group 3.92 ± 0.25; for MDA content: whole brain, medium group 40.94 ± 1.754
Excerpt: The example, which took Kunming mice as experimental subjects, investigated the protection of prevention administration of the compound of the present invention against incomplete cerebral ischemia of mice, through intravenous and intragastric administration, on mouse bilateral carotid artery occlusion with low blood pressure (BCAO-LBP) model, by measuring neurological function score and MDA content in brain.
2.1.2 Preparation of drug for intragastric administration: the compound of the present invention was made into 30 mg/kg by using 0.7% CMC-Na, fully and uniformly mixed with sonication to afford a solution of 1.5 mg/ml. Intragastric (i.g) administration was performed according to 0.2 ml/10 g.
28 mice which had adapted to the laboratory environment for one week were divided into balanced groups according to body weight, i.g administered respectively with 0.7% CMC-Na or the compound of the present invention, once per day for continuous 3 d. The specific groups were as follows:
drug group: 12 mice, with i. g of solution of compounds of the present invention separately, wherein the dosage was 30 mg/kg
2.3.1 Mouse bilateral carotid artery ligation: the mouse was performed with orbit bloodletting (about 30% of the total blood volume of the mouse) to lower the blood pressure 1 h later after last administration, then the mouse was fixed on an operation plate in a supine position, and an incision in the middle of the neck was made. The common carotid artery was exposed with blunt separation, and 2 sutures were prepared under each end of the exposed artery, and both end of the artery were ligatured, respectively. When the ligation was completed for the […], started timing, then cut the common carotid artery between the two ligations, and the incision was sutured. In the sham operation group, the common carotid artery was separated without ligation. The mouse was rapidly released after the operation, the behavior in 6 h and the death time of the mouse was observed and recorded (scored by a blind method according to the following table). The brain was quickly took out after death, the cerebellum was removed, and the MDA content in the whole brain was determined by a TBA method.
The brain of a mouse was taken out, weighted, prepared into 15% brain homogenate with N.S, 1.2 ml of the homogenate was taken out and put into a 37° C. water bath for 1 h (shaked once every 10 min), then taken out from water, added with 0.6 ml of 20% trichloroacetic acid, uniformly mixed, and stood for 10 min, centrifugated at 2000 r for 10 min, 1.2 ml of supernatant fluid was added with 0.6 ml of 0.67% TBA, and put into a boiling water bath for 10 min, then cooled, and OD value was determined at 532 nm.
Experimental data was represented by x±SEM, SPSS13.0 statistical software was applied, homogeneity of variance was judged by single-factor variance analysis. The homogeneity of variance was tested by LSD, the non-homogeneity of variance was tested by Dunnett's T3, the significant differences between the groups were compared and P<0.05 represented a statistical significance.

[2] = test system: MDCK-MDR1 cells
Excerpt: MDCK-MDR1 cells are monolayer cells with high expression of a P-gp transporter after MDR1 genes are transfected in MDCK (Madin-Darby canine kidney epithelial cells). Due to the compactness of the monolayer cells and high expression of a pharmaceutical efflux protein, the cells have a similarity to the structure of the blood-brain barrier (BBB), and can be used as one of the models for evaluating the BBB permeability. Because the compounds of the present invention targeted at the central nervous system and were needed to permeate the BBB, the MDCK-MDR1 cells were applied to research the membrane permeability, and the BBB permeability was preliminarily evaluated.
The cryopreserved MDCK-MDR1 cells were fast thawed in a 37° C. water bath. The postthawed cells were added into a DMEM culture medium containing 10% FBS, cultured in an incubator at 37° C., 5% CO2, with the relative humidity of 90%, and the culture medium was replaced every other day. After 1-2 days' growth for cell fusion, the cells were digested at 37° C., with the mixed digestion solution of 0.25% trysin-EDTA (0.2%), and subcultured according to a certain ratio, wherein the cells used for the experiment are 40˜60-generation cells.
When 80% of the cells were fused, the cells were suspended with a complete culture medium, and inoculated into a Millicell plate according to 1×10^6-mL^−1. The culture solution was changed once every two days, then once every day after 1 week. After cultured for 5 days, the cells were ready for transport experiment when the resistance achieves a platform (>2000 Ω·cm^2).
The solution in the lower pools was collected at 0, 30, 90 and 120 min and stored at −20° C. for later measurement. The permeation amount of the Rho-123 in the lower pools was detected by a fluorescence spectrophotometer, wherein the transmission wavelength was set to […] and the excitation wavelength was set to 530 nm.
The Millicell inoculated with cells was soaked with HBSS solution at 37° C. for an appropriate time before the test, and slightly flushed to remove matters attached on the surfaces of the cells. […] Each concentration was repeated in three wells, the sample was precisely added with 50 μL of internal standard solution and 350 μL of ethyl acetate, shaked and uniformly mixed, centrifugated at 12000 rmp for 5 min, 300 μL of supernatant was took, volatilized to dryness, re-dissolved with 50 μL of acetonitrile and 10 μL was took for sampling and determination. Permeability from the basal surface to the cavity surface: drug was added from the basolateral side (BL), while the blank HBSS solution was added from the apical side (AP), and the following steps were same as those in the permeability test from the cavity surface to the basal surface.
The apparent permeability coefficient (Papp) of the drug reflected the capability of permeating the monolayer cells of the drug and the absorption speed and degree of the drug, which can be calculated by the following formula: […]
wherein, ΔQ was the permeation amount of the drug in a Δt time period, A was the surface area of the cells, namely the area (0.6 cm^2) of a support membrane in the model, and CO was the initial concentration. The unit of the Papp was commonly represented by cm·h^−1 or cm·s^−1.
The sample was detected by LC/MS. Concentration of each sample was quantified with a standard curve (50 nM-10000 nM).

[3] = test system: chicken embryonic dorsal root ganglia; assay: Neurotrophic activity: in-vitro serum-free culture model of chicken embryonic dorsal root ganglia, neurite growth score; format: cell-based; details: 48 h, score 0-3, control 0.33
Description: The neurotrophic activity of the compound of the present invention can be reflected on a variety of in-vitro biological models, such as an in-vitro serum-free culture model of chicken embryonic dorsal root ganglia. Chicken embryo incubated for 8 d was used, and spine and ganglia on the two sides were exposed under a dissecting microscope in sterile environment. The dorsal root ganglia was picked one by one with tweezers, inoculated into culture bottles laid with rat tail collagen according to 5-6 dorsal root ganglia per bottle, two bottles were prepared per dose, and cultured at 37° C., 5% of CO2, for 1 h in an incubator for adherence, then added with a serum-free culture medium DMEM containing NGF (0.15 ng/mL) and the compound of the present invention, while the control group was only added with the culture medium and the same dose of NGF. After being cultured in the incubator for 48 h, the growth of the neurite around dorsal root ganglia was observed under an inverted phase contrast microscope and scored according to the length and density of the neurite, wherein 0 point represents no neurite; 1 point represents the neurite was sparse; 2 points represent the neurite was relatively long or dense; and 3 points represent the neurite was long and dense. The score of the growth of neurite of chicken embryonic dorsal root ganglion under the promotion of the compound of the present invention with different dosage was shown in table 1, wherein each score is an average of five dorsal root ganglia.

[4] = compound 1 pM + NGF (0.15 ng/mL)
[5] = compound 100 pM + NGF (0.15 ng/mL)

SMILES | melting point | Papp(×10^−6) [2] | Neural deficit score [1] | MDA content [1] | Mean score (growth of neurite of chicken embryonic dorsal root ganglion) [3, 4] | Mean score (growth of neurite of chicken embryonic dorsal root ganglion) [3, 5]
CCOC(=O)[C@H](CC(C)C)NC(=O)[C@@H]1CSCCN1S(=O)(=O)c1ccc(C)cc1 [Example 5, (2S)-4-Methyl-2-{[(3R)-4-(toluene-4-sulfonyl)-thiomorpholine-3-carbonyl]-amino}-pentanoic acid ethyl ester] |  | 8.38 ×10^−6 | 3.62 ± 0.31 | 36.09 ± 1.85 nmol/g | 0.65 | 1.55
CCOC(=O)[C@@H](CC(C)C)NC(=O)[C@@H]1CSCCN1S(=O)(=O)c1ccc(C)cc1 [Example 6, (2R)-4-Methyl-2-{[(3R)-4-(toluene-4-sulfonyl)-thiomorpholine-3-carbonyl]-amino}-pentanoic acid ethyl ester] |  | 19.2 ×10^−6 | 3.08 ± 0.40 | 30.87 ± 0.95 nmol/g | 1.23 | 1.88
CCCOC(=O)[C@@H](CC(C)C)NC(=O)[C@@H]1CSCCN1S(=O)(=O)c1ccc(C)cc1 [Example 7, (2R)-4-Methyl-2-{[(3R)-4-(toluene-4-sulfonyl)-thiomorpholine-3-carbonyl]-amino}-pentanoic acid propyl ester] |  | 49.8 ×10^−6 | 2.91 ± 0.28 | 34.90 ± 1.65 nmol/g | 1.46 | 1.95

Continued, in another order:

melting point | Papp(×10^−6) [2] | SMILES | Neural deficit score [1] | MDA content [1] | Mean score (growth of neurite of chicken embryonic dorsal root ganglion) [3, 4] | Mean score (growth of neurite of chicken embryonic dorsal root ganglion) [3, 5]
87 to 89 °C |  | Cc1ccc(S(=O)(=O)N2CCSC[C@H]2C(=O)N[C@H](CC(C)C)C(=O)O)cc1 (hydrate or solvate) [Example 10, (2R)-4-Methyl-2-{[(3R)-4-(toluene-4-sulfonyl)-thiomorpholine-3-carbonyl]-amino}-pentanoic acid] |  |  |  | 
 | 39.5 ×10^−6 | Cc1ccc(S(=O)(=O)N2CCSC[C@H]2C(=O)N[C@H](CC(C)C)C(=O)OC(C)C)cc1 [Example 8, (2R)-4-Methyl-2-{[(3R)-4-(toluene-4-sulfonyl)-thiomorpholine-3-carbonyl]-amino}-pentanoic acid isopropyl ester] | 2.67 ± 0.31 | 33.27 ± 1.91 nmol/g | 1.68 | 2.25
91 to 93 °C | 12.4 ×10^−6 | Cc1ccc(S(=O)(=O)N2CCSC[C@H]2C(=O)N[C@H](CC(C)C)C(=O)OCc2ccccc2)cc1 [Example 9, (2R)-4-Methyl-2-{[(3R)-4-(toluene-4-sulfonyl)-thiomorpholine-3-carbonyl]-amino}-pentanoic acid benzyl ester] |  |  |  | 
 | 34.1 ×10^−6 | Cc1ccc(S(=O)(=O)N2CCSC[C@H]2C(=O)N[C@H](CC(C)C)C(=O)O)cc1 [Example 10, (2R)-4-Methyl-2-{[(3R)-4-(toluene-4-sulfonyl)-thiomorpholine-3-carbonyl]-amino}-pentanoic acid] |  |  |  | 
